Test results taken from PMC4014704, “β-Boomerang Antimicrobial and Antiendotoxic Peptides: Lipidation and Disulfide Bond Effects on Activity and Structure” (Pharmaceuticals, 2014).
Peptide text beside a SMILES is read from it.

Conditions: buffers
Description: In addition, incorporation of disulfide bridges in AMPs may stabilize conformations and enhance cationicity and hydrophobicity required for enhanced activity. […] Residue Ile10 was chosen for Cys replacement since this residue is located at the exposed face of the β-strand of the YI12WF structure (Figure 1).
The solution conformations of YI13C, C4YI13C peptides were examined in free solution using two-dimensional ^1H-^1H NOESY and TOCSY experiments.

Structure (SMILES)	Solubility in buffers (in words)
CCCC(=O)N[C@@H](Cc1ccc(O)cc1)C(=O)N[C@H](C(=O)N[C@@H](CC(C)C)C(=O)N[C@@H](Cc1c[nH]c2ccccc12)C(=O)N[C@@H](CCCCN)C(=O)N[C@@H](CCCNC(=N)N)C(=O)N[C@@H](CCCCN)C(=O)N[C@@H](CCCNC(=N)N)C(=O)N[C@@H](Cc1ccccc1)C(=O)N[C@@H](CSSC[C@H](NC(=O)[C@H](Cc1ccccc1)NC(=O)[C@H](CCCNC(=N)N)NC(=O)[C@H](CCCCN)NC(=O)[C@H](CCCNC(=N)N)NC(=O)[C@H](CCCCN)NC(=O)[C@H](Cc1c[nH]c2ccccc12)NC(=O)[C@H](CC(C)C)NC(=O)[C@@H](NC(=O)[C@H](Cc1ccc(O)cc1)NC(=O)CCC)C(C)C)C(=O)N[C@@H](Cc1ccccc1)C(=O)N[C@H](C(N)=O)[C@@H](C)CC)C(=O)N[C@@H](Cc1ccccc1)C(=O)N[C@H](C(N)=O)[C@@H](C)CC)C(C)C [C4YI12WFC] (HELM PEPTIDE1{[CCCC(=O)[*:2]].Y.V.L.W.K.R.K.R.F.C.F.I.[am]}|PEPTIDE2{[CCCC(=O)[*:2]].Y.V.L.W.K.R.K.R.F.C.F.I.[am]}$PEPTIDE1,PEPTIDE2,11:R3-11:R3$$$V2.0)	remained insoluble in buffers
CCCC(=O)N[C@@H](Cc1ccc(O)cc1)C(=O)N[C@H](C(=O)N[C@@H](CC(C)C)C(=O)N[C@@H](Cc1c[nH]c2ccccc12)C(=O)N[C@@H](CCCCN)C(=O)N[C@@H](CCCNC(=N)N)C(=O)N[C@@H](CCCCN)C(=O)N[C@@H](CCCNC(=N)N)C(=O)N[C@@H](Cc1ccccc1)C(=O)N[C@H](C(=O)N[C@@H](Cc1ccccc1)C(=O)N[C@H](C(N)=O)[C@@H](C)CC)[C@@H](C)CC)C(C)C [C4YI12WF] (HELM PEPTIDE1{[CCCC(=O)[*:2]].Y.V.L.W.K.R.K.R.F.I.F.I.[am]}$$$$V2.0)	remained insoluble in buffers
CCCCCCCC(=O)N[C@@H](Cc1ccc(O)cc1)C(=O)N[C@H](C(=O)N[C@@H](CC(C)C)C(=O)N[C@@H](Cc1c[nH]c2ccccc12)C(=O)N[C@@H](CCCCN)C(=O)N[C@@H](CCCNC(=N)N)C(=O)N[C@@H](CCCCN)C(=O)N[C@@H](CCCNC(=N)N)C(=O)N[C@@H](Cc1ccccc1)C(=O)N[C@@H](CSSC[C@H](NC(=O)[C@H](Cc1ccccc1)NC(=O)[C@H](CCCNC(=N)N)NC(=O)[C@H](CCCCN)NC(=O)[C@H](CCCNC(=N)N)NC(=O)[C@H](CCCCN)NC(=O)[C@H](Cc1c[nH]c2ccccc12)NC(=O)[C@H](CC(C)C)NC(=O)[C@@H](NC(=O)[C@H](Cc1ccc(O)cc1)NC(=O)CCCCCCC)C(C)C)C(=O)N[C@@H](Cc1ccccc1)C(=O)N[C@H](C(N)=O)[C@@H](C)CC)C(=O)N[C@@H](Cc1ccccc1)C(=O)N[C@H](C(N)=O)[C@@H](C)CC)C(C)C [C8YI12WFC] (HELM PEPTIDE1{[CCCCCCCC(=O)[*:2]].Y.V.L.W.K.R.K.R.F.C.F.I.[am]}|PEPTIDE2{[CCCCCCCC(=O)[*:2]].Y.V.L.W.K.R.K.R.F.C.F.I.[am]}$PEPTIDE1,PEPTIDE2,11:R3-11:R3$$$V2.0)	remained insoluble in buffers
CCCCCCCC(=O)N[C@@H](Cc1ccc(O)cc1)C(=O)N[C@H](C(=O)N[C@@H](CC(C)C)C(=O)N[C@@H](Cc1c[nH]c2ccccc12)C(=O)N[C@@H](CCCCN)C(=O)N[C@@H](CCCNC(=N)N)C(=O)N[C@@H](CCCCN)C(=O)N[C@@H](CCCNC(=N)N)C(=O)N[C@@H](Cc1ccccc1)C(=O)N[C@H](C(=O)N[C@@H](Cc1ccccc1)C(=O)N[C@H](C(N)=O)[C@@H](C)CC)[C@@H](C)CC)C(C)C [C8YI12WF] (HELM PEPTIDE1{[CCCCCCCC(=O)[*:2]].Y.V.L.W.K.R.K.R.F.I.F.I.[am]}$$$$V2.0)	remained insoluble in buffers
